Data as given in publication PMC10989073, “Antineoplastic effect of compounds C14 and P8 on TNBC and radioresistant TNBC cells by stabilizing the K-Ras4B^G13D/PDE6δ complex” (Frontiers in Oncology, 2024).

Key:
MCF-10A cells = assay: Clonogenic assay; format: cell-based, human; conditions: 10 to 12 days, C14 and P8 at IC50-48, cisplatin 100 µM, doxorubicin 0.5 µM
Method: The principal aim of a clonogenic assay is to evaluate the effect of chemotherapy agents or new drugs by the measurement of their ability to arrest tumor cell division and their ability to develop new colonies after their exposure to these new drugs ([56]). Therefore, the colony formation ability of the cell lines MCF-10A, MDA-MB-231, and MDA-MB-231RR was evaluated after their exposure to the C14 and P8 compounds. In brief, breast cancer cell lines were cultured in 6-well plates (Corning), seeding 300 cells per well, and incubated at 37°C in 5% CO2 for 24 h. Compounds C14 and P8 were added at the maximum evaluated concentration IC50-48. As controls, cells without treatment and cells treated in the presence of a vehicle (DMSO at 0.66%) were employed (Sigma-Aldrich). […] After 10 days of treatment, cells were fixed with 4% PFA and stained with 0.1% crystal violet in citric acid (Sigma-Aldrich) for 15 minutes. Subsequently, the dye present in the cells was extracted using isopropanol and read at 570 nm in a Synergy-HTX microplate reader (BioTek). Each test was performed in triplicate. Data were expressed as % colonies relative to the untreated control ([56]).

[1] = Apoptosis/necrosis assay (Annexin V–propidium iodide, flow cytometry); format: cell-based, human; conditions: human, MCF-10A cells, 24 h at IC50-24, flow cytometry
Method: Apoptosis and necrosis were determined using the Apoptosis/Necrosis Detection kit (Abcam, Cambridge, UK) according to the manufacturer’s instructions. In brief, approximately 500,000 cells were seeded in 6-well plates (Corning) for 24 h. […] Cells were harvested and collected by centrifugation. All the samples were analyzed in triplicate using flow cytometry equipment FACSCalibur instrument (BD Biosciences, San Jose, CA, USA) at […] and 575-nm emission. Data analysis was performed using the FlowJo software (Tree Star Inc., Ashland, OR, USA). All experiments were performed in triplicate.

Row | SMILES | reduction of colony growth (MCF-10A cells) | viability at 24 h [1]
1 | O=C(CN1CCN(c2cccc(Cl)c2)CC1)N[C@@H]1CCOc2ccccc21 [P8, 2-[4-(3-chlorophenyl)piperazin-1-yl]-N-[(4R)-chroman-4-yl]acetamide] | 48% | 94.3%
2 | N.N.[Cl][Pt][Cl] [Cisplatin, cisplatin, reference compound] | 95% | 
